Measured values published in patent publication US20250163054A1, “SUBSTITUTED BICYCLIC HETEROARYL COMPOUNDS USEFUL AS INHIBITORS OF TLR9” (Bristol-Myers Squibb Company, priority 2022, published 2025).

Experiments:
Assay type in all cases: cell-based
[1] = biological target: T1, human TLR7 (Homo sapiens, UniProt Q9NYK1); assay: TLR7/8/9 Inhibition Reporter Assays (TLR7); details: HEK-Blue cells overexpressing human TLR7, SEAP reporter, stimulated with TLR7 ligand gardiquimod
T1 construct: host or cells: HEK-Blue cells (HEK293-derived reporter line)
T1 sequence (Q9NYK1 27-1049): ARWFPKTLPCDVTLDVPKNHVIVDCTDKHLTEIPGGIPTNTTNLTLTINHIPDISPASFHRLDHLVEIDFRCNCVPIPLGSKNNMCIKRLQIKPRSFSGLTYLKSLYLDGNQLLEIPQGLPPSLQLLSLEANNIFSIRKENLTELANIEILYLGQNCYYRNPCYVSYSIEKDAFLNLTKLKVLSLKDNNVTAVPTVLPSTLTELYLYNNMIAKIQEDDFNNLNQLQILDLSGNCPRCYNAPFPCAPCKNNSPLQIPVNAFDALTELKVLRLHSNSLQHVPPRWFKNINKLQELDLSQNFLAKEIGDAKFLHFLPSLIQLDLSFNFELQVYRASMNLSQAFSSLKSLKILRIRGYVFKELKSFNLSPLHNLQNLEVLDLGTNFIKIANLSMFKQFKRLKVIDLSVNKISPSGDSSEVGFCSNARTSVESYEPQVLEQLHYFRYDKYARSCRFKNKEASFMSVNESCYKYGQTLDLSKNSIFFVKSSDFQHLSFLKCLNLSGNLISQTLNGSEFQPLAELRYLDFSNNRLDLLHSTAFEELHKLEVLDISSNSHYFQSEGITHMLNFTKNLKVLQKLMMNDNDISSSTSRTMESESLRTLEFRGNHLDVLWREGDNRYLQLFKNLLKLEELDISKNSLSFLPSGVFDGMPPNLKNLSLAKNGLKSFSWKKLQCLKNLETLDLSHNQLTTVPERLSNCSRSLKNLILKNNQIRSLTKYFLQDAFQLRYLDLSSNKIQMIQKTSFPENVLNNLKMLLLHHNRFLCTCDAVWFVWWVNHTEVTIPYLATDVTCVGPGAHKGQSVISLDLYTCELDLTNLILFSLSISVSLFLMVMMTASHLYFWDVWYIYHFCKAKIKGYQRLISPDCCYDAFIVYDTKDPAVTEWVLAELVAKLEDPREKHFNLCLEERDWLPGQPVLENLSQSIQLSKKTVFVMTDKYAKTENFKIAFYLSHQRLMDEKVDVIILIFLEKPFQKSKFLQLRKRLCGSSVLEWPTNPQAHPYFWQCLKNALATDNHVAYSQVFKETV
Protocol: (§1) HEK-Blue™-cells (Invivogen) overexpressing human TLR7, TLR8 or TLR9 receptors were used for screening inhibitors of these receptors using an inducible SEAP (secreted embryonic alkaline phosphatase) reporter gene under the control of the IFN-β minimal promoter fused to five NF-κB and AP-1-binding sites. Cells are seeded into Greiner 384 well plates (15000 cells per well) that are predispensed (by ECHO) with testing compounds in DMSO to yield a final dose response concentration range of 0.85 nM-[…]. After a 60 minute compound pre-treatment in 37° C. incubator, the cells are then stimulated with a TLR7 ligand (gardiquimod at a final concentration of […]), TLR8 ligand (R848 at a final concentration of […]) or TLR9 ligand (ODN2006 at a final concentration of 200 nM) to activate NF-κB and AP-1 which induce the production of SEAP. After a 22 hour incubation at 37° C., 5% CO2, SEAP levels are determined with the addition of HEK-Blue™ Detection reagent (Invivogen), a cell culture medium that allows for detection of SEAP, according to manufacturer's specifications. The percent inhibition is determined as the % reduction in the HEK-Blue signal present in wells treated with agonist plus DMSO alone compared to wells treated with a known inhibitor.

[2] = biological target: T2, human TLR9 (Homo sapiens, UniProt Q9NR96); assay: TLR7/8/9 Inhibition Reporter Assays (TLR9); details: HEK-Blue cells overexpressing human TLR9, SEAP reporter, stimulated with TLR9 ligand ODN2006
T2 construct: host or cells: HEK-Blue cells (HEK293-derived reporter line)
T2 sequence (Q9NR96 26-1032): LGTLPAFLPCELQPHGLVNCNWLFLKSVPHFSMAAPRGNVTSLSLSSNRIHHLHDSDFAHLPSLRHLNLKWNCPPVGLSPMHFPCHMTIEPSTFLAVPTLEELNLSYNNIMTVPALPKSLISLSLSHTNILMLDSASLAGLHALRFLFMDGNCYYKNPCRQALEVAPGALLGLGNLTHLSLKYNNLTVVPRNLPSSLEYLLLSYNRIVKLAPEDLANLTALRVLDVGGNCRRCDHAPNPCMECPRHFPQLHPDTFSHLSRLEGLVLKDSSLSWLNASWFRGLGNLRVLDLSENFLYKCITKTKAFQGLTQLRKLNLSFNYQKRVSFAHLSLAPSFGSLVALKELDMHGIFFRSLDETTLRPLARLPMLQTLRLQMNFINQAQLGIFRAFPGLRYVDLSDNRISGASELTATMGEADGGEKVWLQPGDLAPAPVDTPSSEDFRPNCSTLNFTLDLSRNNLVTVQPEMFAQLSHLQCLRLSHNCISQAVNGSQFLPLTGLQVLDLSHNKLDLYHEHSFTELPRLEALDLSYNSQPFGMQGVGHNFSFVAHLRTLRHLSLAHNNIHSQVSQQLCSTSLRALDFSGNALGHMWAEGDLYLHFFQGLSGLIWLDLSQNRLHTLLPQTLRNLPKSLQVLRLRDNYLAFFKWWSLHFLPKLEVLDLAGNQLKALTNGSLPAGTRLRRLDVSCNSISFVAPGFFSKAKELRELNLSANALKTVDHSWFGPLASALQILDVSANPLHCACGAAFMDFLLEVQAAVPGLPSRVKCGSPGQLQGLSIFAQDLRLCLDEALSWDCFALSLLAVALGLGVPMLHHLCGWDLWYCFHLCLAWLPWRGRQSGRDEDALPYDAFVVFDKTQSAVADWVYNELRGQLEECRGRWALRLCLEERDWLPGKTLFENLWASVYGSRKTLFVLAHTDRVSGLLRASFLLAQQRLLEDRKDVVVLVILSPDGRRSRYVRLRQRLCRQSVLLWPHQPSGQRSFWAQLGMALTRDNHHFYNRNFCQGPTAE
Protocol: as §1

[3] = biological target: T3, human TLR8 (Homo sapiens, UniProt Q9NR97); assay: TLR7/8/9 Inhibition Reporter Assays (TLR8); details: HEK-Blue cells overexpressing human TLR8, SEAP reporter, stimulated with TLR8 ligand R848
T3 construct: host or cells: HEK-Blue cells (HEK293-derived reporter line)
T3 sequence (Q9NR97 27-1041): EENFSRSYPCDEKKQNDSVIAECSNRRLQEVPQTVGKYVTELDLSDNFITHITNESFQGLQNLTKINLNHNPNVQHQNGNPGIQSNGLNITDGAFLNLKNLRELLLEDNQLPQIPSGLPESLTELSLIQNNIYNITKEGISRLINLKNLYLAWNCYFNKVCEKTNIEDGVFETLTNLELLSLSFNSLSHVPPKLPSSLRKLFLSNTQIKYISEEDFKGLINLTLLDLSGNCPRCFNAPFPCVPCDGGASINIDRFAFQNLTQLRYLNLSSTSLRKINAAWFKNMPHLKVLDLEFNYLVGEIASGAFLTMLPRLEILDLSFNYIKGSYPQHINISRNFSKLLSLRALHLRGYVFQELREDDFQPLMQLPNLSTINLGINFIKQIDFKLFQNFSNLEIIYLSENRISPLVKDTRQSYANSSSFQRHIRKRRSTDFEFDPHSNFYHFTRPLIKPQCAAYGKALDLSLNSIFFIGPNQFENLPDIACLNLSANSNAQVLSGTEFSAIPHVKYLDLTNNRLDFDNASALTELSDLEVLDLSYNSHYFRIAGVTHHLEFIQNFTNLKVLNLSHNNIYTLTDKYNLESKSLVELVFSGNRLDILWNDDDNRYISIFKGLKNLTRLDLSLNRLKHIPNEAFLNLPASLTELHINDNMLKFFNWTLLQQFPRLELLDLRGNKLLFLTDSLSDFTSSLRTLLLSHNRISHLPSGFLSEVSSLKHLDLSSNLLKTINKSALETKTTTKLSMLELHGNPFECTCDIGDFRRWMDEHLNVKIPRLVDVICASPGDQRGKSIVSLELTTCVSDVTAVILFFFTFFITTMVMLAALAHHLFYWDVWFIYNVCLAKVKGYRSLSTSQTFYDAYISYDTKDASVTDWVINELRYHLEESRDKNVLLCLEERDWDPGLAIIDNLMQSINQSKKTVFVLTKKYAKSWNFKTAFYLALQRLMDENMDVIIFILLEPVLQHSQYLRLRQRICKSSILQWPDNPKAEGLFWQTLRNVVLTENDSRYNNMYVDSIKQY
Protocol: as §1

IC50 [1] [nM]	IC50 [2] [nM]	IC50 [3] [nM]	Structure (SMILES)
1500	140	18000	COc1ccc(-c2nc3c(C)nc(-c4ccc(N5CCN(CC6CC6)CC5)cc4)cc3n2C)cc1OC [Example 18, 6-(4-(4-(cyclopropylmethyl)piperazin-1-yl)phenyl)-2-(3,4-dimethoxyphenyl)-1,4-dimethyl-1H-imidazo[4,5-c]pyridine]
850	820	> 50000	COc1ccc(-c2nc3c(C)nc(-c4ccc(N5CCN(C6CCC6)CC5)cc4)cc3n2C)cc1OC [Example 19, 6-(4-(4-cyclobutylpiperazin-1-yl)phenyl)-2-(3,4-dimethoxyphenyl)-1,4-dimethyl-1H-imidazo[4,5-c]pyridine]
2900	360	12000	Cc1nc(-c2ccc(N3CCN(CC4CC4)CC3)cc2)cc2c1nc(-c1ccc(S(C)(=O)=O)cc1)n2C [Example 20, 6-(4-(4-(cyclopropylmethyl)piperazin-1-yl)phenyl)-1,4-dimethyl-2-(4-(methylsulfonyl)phenyl)-1H-imidazo[4,5-c]pyridine]
3000	450	3300	Cc1nc(-c2ccc(N3CCN(C4CCC4)CC3)cc2)cc2c1nc(-c1ccc(S(C)(=O)=O)cc1)n2C [Example 21, 6-(4-(4-cyclobutylpiperazin-1-yl)phenyl)-1,4-dimethyl-2-(4-(methylsulfonyl)phenyl)-1H-imidazo[4,5-c]pyridine]

The remaining lines, values behind:

Structure (SMILES)	IC50 [1] [nM]	IC50 [2] [nM]	IC50 [3] [nM]
COc1cc(-c2nc3c(C)nc(-c4ccc(N5CCN(CC(C)C)CC5)cc4)cc3n2C)cn2ncnc12 [Example 10, 6-(6-(4-(4-isobutylpiperazin-1-yl)phenyl)-1,4-dimethyl-1H-imidazo[4,5-c]pyridin-2-yl)-8-methoxy-[1,2,4]triazolo[1,5-a]pyridine]	9600	1700	> 50000
COc1cc(-c2nc3c(C)nc(-c4ccc(N5CCN(CC6CC6)CC5)cc4)cc3n2C)cn2ncnc12 [Example 11, 6-(6-(4-(4-(cyclopropylmethyl)piperazin-1-yl)phenyl)-1,4-dimethyl-1H-imidazo[4,5-c]pyridin-2-yl)-8-methoxy-[1,2,4]triazolo[1,5-a]pyridine]	1100	420	> 50000
COc1cc(-c2nc3c(C)nc(-c4ccc(N5CCN(C6CCC6)CC5)cc4)cc3n2C)cn2ncnc12 [Example 12, 6-(6-(4-(4-cyclobutylpiperazin-1-yl)phenyl)-1,4-dimethyl-1H-imidazo[4,5-c]pyridin-2-yl)-8-methoxy-[1,2,4]triazolo[1,5-a]pyridine]	1500	630	> 50000
Cc1cc(-c2nc3c(C)nc(-c4ccc(N5CCN(C(C)C)CC5)cc4)cc3n2C)cc(C)n1 [Example 13, 2-(2,6-dimethylpyridin-4-yl)-6-(4-(4-isopropylpiperazin-1-yl)phenyl)-1,4-dimethyl-1H-imidazo[4,5-c]pyridine]	1900	410	> 50000
Cc1cc(-c2nc3c(C)nc(-c4ccc(N5CCN(CC(C)C)CC5)cc4)cc3n2C)cc(C)n1 [Example 14, 2-(2,6-dimethylpyridin-4-yl)-6-(4-(4-isobutylpiperazin-1-yl)phenyl)-1,4-dimethyl-1H-imidazo[4,5-c]pyridine]	4500	380	4600
Cc1cc(-c2nc3c(C)nc(-c4ccc(N5CCN(CC6CC6)CC5)cc4)cc3n2C)cc(C)n1 [Example 15, 6-(4-(4-(cyclopropylmethyl)piperazin-1-yl)phenyl)-2-(2,6-dimethylpyridin-4-yl)-1,4-dimethyl-1H-imidazo[4,5-c]pyridine]	1100	460	18000
Cc1cc(-c2nc3c(C)nc(-c4ccc(N5CCN(C6CCC6)CC5)cc4)cc3n2C)cc(C)n1 [Example 16, 6-(4-(4-cyclobutylpiperazin-1-yl)phenyl)-2-(2,6-dimethylpyridin-4-yl)-1,4-dimethyl-1H-imidazo[4,5-c]pyridine]	2100	910	> 50000
COc1ccc(-c2nc3c(C)nc(-c4ccc(N5CCN(CC(C)C)CC5)cc4)cc3n2C)cc1OC [Example 17, 2-(3,4-dimethoxyphenyl)-6-(4-(4-isobutylpiperazin-1-yl)phenyl)-1,4-dimethyl-1H-imidazo[4,5-c]pyridine]	4400	460	12000
